From US12129257B1, “Imidazo[1,2-a]pyrazine compounds as CK2 inhibitors” (KING FAISAL UNIVERSITY, priority 2023, dated 2024)

Legend:
A375 (melanoma) = experiment: In vitro cytotoxic activity (MTT) assay, A375; format: cell-based; conditions: Homo sapiens, A-375; A375 (melanoma) cells, exposed for 96 hours; read-out: IC50, 50% inhibition of cell proliferation
Method: (§1) Compounds 1a-12a and 1b-12b were screened for their in vitro cytotoxic activity utilizing a 3-(4,5-dimethyl-thiazol-2-yl)-2,5-diphenyltetrazolium bromide (MTT) assay against selected cancer human cell lines consisting of PC3 (prostate), HCT116 (colon), A375 (melanoma), H1299 (lung), MIAPaCa-2 (pancreas), HL60 (leukemia), MCF7 (breast), MDA-MB-231 (breast) (T. Mosmann, J. Immunol. Meth., 1983, 65, 55-63). The cells were cultured at 37° C. in RMPI1640 medium supplemented with 10% fetal bovine serum, 50 IU/mL penicillin, and 50 μg/mL streptomycin in a 5% CO2 incubator. All cells were sub-cultured 3 times/week by trypsinisation. Viable cells were seeded and allowed to adhere for 12 h before a test drug was added in 96-well plates at an initial density of 1.0×10^5 cells/mL. Tumor cell lines were separately exposed to various concentrations of the tested compounds followed by incubation at a temperature of 37° C. during 96 hours inside a medium of fresh RMPI1640. Cells were subsequently incubated at 37° C. using MTT at 0.5 mg/mL during 4 hours. After removal of supernatant, formazan crystals were dissolved in isopropanol and the optical density was measured at 570 nm. CX-4945 was used as a positive control.

MIAPaCa-2 (pancreas) = experiment: In vitro cytotoxic activity (MTT) assay, MIAPaCa-2; format: cell-based; conditions: Homo sapiens, MIA PaCa-2; MIAPaCa-2 (pancreas) cells, exposed for 96 hours; read-out: IC50, 50% inhibition of cell proliferation
Method: as §1

HCT116 (colon) = experiment: In vitro cytotoxic activity (MTT) assay, HCT116; format: cell-based; conditions: Homo sapiens, HCT-116; HCT116 (colon) cells, exposed for 96 hours; read-out: IC50, 50% inhibition of cell proliferation
Method: as §1

HL60 (leukemia) = experiment: In vitro cytotoxic activity (MTT) assay, HL60; format: cell-based; conditions: Homo sapiens, HL-60; HL60 (leukemia) cells, exposed for 96 hours; read-out: IC50, 50% inhibition of cell proliferation
Method: as §1

H1299 (lung) = experiment: In vitro cytotoxic activity (MTT) assay, H1299; format: cell-based; conditions: Homo sapiens, NCI-H1299; H1299 (lung) cells, exposed for 96 hours; read-out: IC50, 50% inhibition of cell proliferation
Method: as §1

MDA-MB-231 (breast) = experiment: In vitro cytotoxic activity (MTT) assay, MDA-MB-231; format: cell-based; conditions: Homo sapiens; MDA-MB-231 (breast) cells, exposed for 96 hours; read-out: IC50, 50% inhibition of cell proliferation
Method: as §1

MCF7 (breast) = experiment: In vitro cytotoxic activity (MTT) assay, MCF7; format: cell-based; conditions: Homo sapiens; MCF7 (breast) cells, exposed for 96 hours; read-out: IC50, 50% inhibition of cell proliferation
Method: as §1

PC3 (prostate) = experiment: In vitro cytotoxic activity (MTT) assay, PC3; format: cell-based; conditions: Homo sapiens, Prostate cell; PC3 (prostate) cells, exposed for 96 hours; read-out: IC50, 50% inhibition of cell proliferation
Method: as §1

[1] = molecular target: T1, recombinant human CK2 (RRBB-holoenzyme) (Homo sapiens, UniProt P68400); experiment: CK2 Kinase Assay (33P-ATP, filter plate); format: biochemical; conditions: recombinant human CK2, final ATP concentration 15 μM, 10 min at 30° C.; read-out: protein kinase CK2 activity IC50
T1 construct: purchased Millipore
Method: CK2 Kinase Assay was conducted using the protocol as described in Pierre F. et al; J. Med. Chem. 2011, 54, 635-654. The tested compounds in aqueous solution were added at a volume of 10 μL to a reaction mixture comprising 10 μL of assay dilution buffer (ADB; 20 mM MOPS, pH 7.2, 25 mM β-glycerol phosphate, 5 mM EGTA, 1 mM sodium orthovanadate, and 1 mM dithiothreitol), 10 μL of substrate peptide (RRRDDDSDDD, dissolved in ADB at a concentration of 1 mM), 10 μL of recombinant human CK2 (RRBB-holoenzyme, 25 ng dissolved in ADB; Millipore). Reactions were initiated by the addition of 10 μL of ATP solution (90%75 mMMgCl2, 75 μM ATP (final ATP concentration: 15 μM) dissolved in ADB; 10% [γ-33P] ATP (stock 1mCi/100 μL; 3000 Ci/mmol (Perkin-Elmer) and maintained for 10 min at 30° C. The reactions were quenched with 100 μL of 0.75% phosphoric acid and then transferred to and filtered through a phosphor cellulose filter plate (Millipore). After washing each well five times with 0.75% phosphoric acid, the plate was dried under vacuum for 5 min and, following the addition of 15 μL of scintillation fluid to each well, the residual radioactivity was measured using a Wallac luminescence counter. The IC50 values were derived from eight concentrations of test inhibitors.

T1 sequence (P68400 whole entry): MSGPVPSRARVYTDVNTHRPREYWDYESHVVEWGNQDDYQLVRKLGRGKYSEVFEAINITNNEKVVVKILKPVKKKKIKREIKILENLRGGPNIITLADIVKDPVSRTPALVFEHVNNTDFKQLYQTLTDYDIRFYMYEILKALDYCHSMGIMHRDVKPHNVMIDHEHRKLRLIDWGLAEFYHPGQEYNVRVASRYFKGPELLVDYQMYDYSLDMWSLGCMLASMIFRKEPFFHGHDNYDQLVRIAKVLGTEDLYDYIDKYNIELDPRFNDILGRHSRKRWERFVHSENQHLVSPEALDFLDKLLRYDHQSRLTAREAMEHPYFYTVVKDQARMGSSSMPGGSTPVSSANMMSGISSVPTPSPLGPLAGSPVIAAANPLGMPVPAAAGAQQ
T1 sequence (P67870 whole entry partner): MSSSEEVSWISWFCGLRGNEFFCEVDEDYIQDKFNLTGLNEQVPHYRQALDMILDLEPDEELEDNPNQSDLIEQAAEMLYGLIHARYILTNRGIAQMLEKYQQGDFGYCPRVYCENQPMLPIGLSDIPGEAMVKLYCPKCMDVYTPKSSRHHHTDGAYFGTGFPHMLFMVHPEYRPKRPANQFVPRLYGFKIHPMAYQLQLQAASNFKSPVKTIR

IC50 [1] [nM] | Structure (SMILES) | IC50 (A375 (melanoma)) [nM] | IC50 (MIAPaCa-2 (pancreas)) [nM] | IC50 (HCT116 (colon)) [nM] | IC50 (HL60 (leukemia)) [nM] | IC50 (H1299 (lung)) [nM] | IC50 (MDA-MB-231 (breast)) [nM] | IC50 (MCF7 (breast)) [nM] | IC50 (PC3 (prostate)) [nM]
 | O=C(O)c1ccc2c(c1)nc(Nc1cccc(Cl)c1)c1ccncc12 [CX-4945, Silmitasertib, reference compound] | 4100 | 1000 | 2300 | 3700 | 2300 | 6200 | 9100 | 2000
115 | FC(F)(F)c1cccc(Nc2c(-c3ccncc3)nc3cnccn23)c1 [Compound 3a, 2-(pyridin-4-yl)-N-(3-(trifluoromethyl)phenyl)imidazo[1,2-a]pyrazin-3-amine] | 3400 | 1300 | 1700 | 4400 | 1500 | 4600 | 5100 | 1200
98 | FC(F)(F)c1cccc(Nc2c(-c3ccncn3)nc3cnccn23)c1 [Compound 2b, 2-(pyrimidin-4-yl)-N-(3-(trifluoromethyl)phenyl)imidazo[1,2-a]pyrazin-3-amine] | 3500 | 1600 | 1500 | 4500 | 1200 | 4200 | 5000 | 1400
